According to publication PMC9110766, “Structure-Based Design of 2-Aminopurine Derivatives as CDK2 Inhibitors for Triple-Negative Breast Cancer” (Frontiers in Pharmacology, 2022):

Key:
[1] = system: MDA-MB-231 cells; assay: Anti-proliferation test (MTT); format: cell-based; conditions: Homo sapiens, 48 h
[2] = target: CDK6/cyclin D3 (Homo sapiens, UniProt Q00534); assay: CDK6 inhibition, Kinase-Glo Luminescent Kinase Assay; format: biochemical
Protocol: (§1) Experiments were carried out using the Kinase-Glo® Luminescent Kinase Assays as described previously ([Kashem et al., 2007]). Briefly, all enzymatic reactions were conducted at 30°C for 40 min. The 50 µl reaction mixture contains 40 mM Tris, pH 7.4, 10 mM MgCl2, 0.1 mg/ml BSA, 1 mM DTT, 10 µM ATP, 0.2 μg/ml CDKs, and 100 μM lipid substrate. The compounds were diluted with 10% DMSO and then 5 µl of the dilution was removed and put into the subsequent reaction. The kinase activities were measured by detecting the content of remaining ATP. The luminescent signal was correlated with the amount of residual ATP and negatively correlated with the amount of kinase activity. The IC50 values were calculated using Prism GraphPad software.

[3] = Cytotoxicity (MTT) in human embryonic kidney cells; format: cell-based; conditions: 293T cells
Protocol: Standard MTT (thiazolyl blue; 3-[4,5-dimethylthiazol-2-yl]-2,5-diphenyltetrazolium bromide) assays were performed as 5 mg/ml. Briefly, MDA-MB-231 or 293T cells were seeded into 96-well plates and incubated for 24 h at 37°C. All compounds were dissolved in DMSO, and a gradient dilution series were prepared in 100 μl of cell medium, added to cells (in triplicates), and incubated for 48 h at 37°C with 5% CO2. MTT was added (5 mg/ml, 20 μl) to each plate and these mixtures were incubated for another 4 h. Then, the medium was removed, and the mixture was completely dissolved in DMSO (200 μL) after shaking for 10 min.

[4] = target: CDK8/cyclin C (Homo sapiens, UniProt P49336); assay: CDK8 inhibition, Kinase-Glo Luminescent Kinase Assay; format: biochemical
Protocol: as §1

[5] = target: CDK1/cyclin B (Homo sapiens, UniProt P06493); assay: CDK1 inhibition, Kinase-Glo Luminescent Kinase Assay; format: biochemical
Protocol: as §1

[6] = target: CDK2/cyclin A (Homo sapiens, UniProt P24941); assay: CDK2 inhibition, Kinase-Glo Luminescent Kinase Assay; format: biochemical; conditions: geometric means of n ⩾ 3 experiments; 10 µM ATP; read-out: IC50 against CDK2
Protocol: The IC50 values were calculated using Prism GraphPad software.

[7] = system: MDA-MB-231 cells; assay: Cell cycle analysis (PI staining, flow cytometry); format: cell-based, human; conditions: 20 μM, 24 h, compared with negative control group
Protocol: MDA-MB-231 cells were seeded in six-well plates and incubated with 20 μM compounds 11c, 11l, 11p, and vehicle (0.2% DMSO) for 24 h. Subsequently, cells were centrifugated and washed with cold PBS buffer. After the centrifugation, the supernatants were removed, and the cells were resuspended in PBS buffer. Then, 10 μl of PI were added and the cells were incubated in the dark for 15 min at room temperature. The stained cells were analyzed by a flow cytometer (BD Accuri C6).

[8] = system: CDK4/D3; set-up: method as in Fry et al., 2004; conditions: ref Fry et al., 2004; cited from earlier work
[9] = system: CDK4/D1; set-up: method as in Fry et al., 2004; conditions: ref Fry et al., 2004; cited from earlier work
[10] = system: CDK6/D2; set-up: method as in Fry et al., 2004; conditions: ref Fry et al., 2004; cited from earlier work
[11] = system: CDK1/B; conditions: ref Wang et al., 2013; cited from earlier work
[12] = system: CDK2/A; conditions: ref Wang et al., 2013; cited from earlier work

Sequence of CDK8/cyclin C (P49336 whole entry): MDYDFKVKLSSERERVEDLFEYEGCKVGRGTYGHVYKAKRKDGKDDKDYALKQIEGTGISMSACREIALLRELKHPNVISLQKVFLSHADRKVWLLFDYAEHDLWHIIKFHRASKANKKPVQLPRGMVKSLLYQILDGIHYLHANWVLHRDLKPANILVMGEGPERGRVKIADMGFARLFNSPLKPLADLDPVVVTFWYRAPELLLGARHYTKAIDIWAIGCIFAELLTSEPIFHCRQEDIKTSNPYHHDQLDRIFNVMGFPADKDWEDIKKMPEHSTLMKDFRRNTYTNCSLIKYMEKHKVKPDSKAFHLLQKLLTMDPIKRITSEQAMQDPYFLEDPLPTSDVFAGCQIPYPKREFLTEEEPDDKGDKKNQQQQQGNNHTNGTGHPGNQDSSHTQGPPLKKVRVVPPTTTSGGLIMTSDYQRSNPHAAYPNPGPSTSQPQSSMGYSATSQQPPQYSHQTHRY
Sequence of CDK8/cyclin C (P24863 whole entry partner): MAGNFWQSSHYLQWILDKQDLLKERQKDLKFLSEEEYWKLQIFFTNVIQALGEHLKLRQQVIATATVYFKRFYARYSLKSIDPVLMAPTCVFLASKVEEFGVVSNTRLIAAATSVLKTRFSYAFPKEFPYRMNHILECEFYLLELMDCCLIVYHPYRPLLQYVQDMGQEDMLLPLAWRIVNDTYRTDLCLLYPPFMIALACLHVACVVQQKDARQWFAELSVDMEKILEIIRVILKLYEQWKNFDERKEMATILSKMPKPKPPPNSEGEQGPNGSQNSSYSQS
Sequence of CDK1/cyclin B (P06493 whole entry): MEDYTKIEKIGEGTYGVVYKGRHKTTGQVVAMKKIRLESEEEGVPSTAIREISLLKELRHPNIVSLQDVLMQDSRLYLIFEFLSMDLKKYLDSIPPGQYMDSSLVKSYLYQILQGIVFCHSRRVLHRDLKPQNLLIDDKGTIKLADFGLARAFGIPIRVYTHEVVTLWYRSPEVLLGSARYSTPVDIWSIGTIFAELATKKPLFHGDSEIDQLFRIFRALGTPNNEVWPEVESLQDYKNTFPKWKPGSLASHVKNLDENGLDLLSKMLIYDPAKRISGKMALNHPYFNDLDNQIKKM
Sequence of CDK1/cyclin B (P14635 whole entry partner): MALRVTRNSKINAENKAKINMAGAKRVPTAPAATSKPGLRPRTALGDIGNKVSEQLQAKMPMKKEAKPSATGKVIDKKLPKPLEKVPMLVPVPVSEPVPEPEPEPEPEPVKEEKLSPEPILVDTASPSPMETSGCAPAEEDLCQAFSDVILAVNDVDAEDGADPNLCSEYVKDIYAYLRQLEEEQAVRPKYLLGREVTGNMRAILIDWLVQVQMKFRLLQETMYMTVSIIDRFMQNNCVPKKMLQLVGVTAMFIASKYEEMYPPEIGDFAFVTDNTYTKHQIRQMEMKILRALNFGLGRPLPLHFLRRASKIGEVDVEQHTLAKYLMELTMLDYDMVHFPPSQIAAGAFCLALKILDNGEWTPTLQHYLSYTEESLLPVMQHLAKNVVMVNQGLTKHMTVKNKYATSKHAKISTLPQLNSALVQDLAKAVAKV
Sequence of CDK6/cyclin D3 (Q00534 whole entry): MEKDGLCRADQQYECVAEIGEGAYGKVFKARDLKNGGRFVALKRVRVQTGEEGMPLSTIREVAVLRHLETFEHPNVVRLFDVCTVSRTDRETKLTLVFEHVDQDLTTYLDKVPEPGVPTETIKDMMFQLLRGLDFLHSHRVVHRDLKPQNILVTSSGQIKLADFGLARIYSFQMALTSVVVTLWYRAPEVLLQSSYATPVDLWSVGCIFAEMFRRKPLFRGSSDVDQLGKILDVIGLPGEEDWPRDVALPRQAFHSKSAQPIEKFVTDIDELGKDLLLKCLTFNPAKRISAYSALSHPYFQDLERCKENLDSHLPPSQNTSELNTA
Sequence of CDK6/cyclin D3 (P30281 whole entry partner): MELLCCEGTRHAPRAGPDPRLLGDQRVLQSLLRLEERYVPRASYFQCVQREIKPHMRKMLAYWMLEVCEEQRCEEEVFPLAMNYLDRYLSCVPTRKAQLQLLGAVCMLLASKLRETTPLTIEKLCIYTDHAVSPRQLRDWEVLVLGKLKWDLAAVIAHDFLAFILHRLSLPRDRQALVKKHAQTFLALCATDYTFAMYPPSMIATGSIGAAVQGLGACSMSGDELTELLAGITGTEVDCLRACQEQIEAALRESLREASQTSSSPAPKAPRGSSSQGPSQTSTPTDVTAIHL

Row | Structure (SMILES) | IC50 [1] [µM] | IC50 [2] [nM] | selectivity for CDK2 over CDK6 ([2]; ratio of IC50 values) | IC50 at 48 h [3] [µM] | selectivity for CDK2 over CDK8 ([4]; CDK8 inhibition <20% @ 5 μM) | CDK8/cyclin C Inhibition rate @5 μM (%) ([4]; compound at 5 μM, 5 µM) | inhibition at 5 µM ([4]; compound at 5 μM, read-out: CDK8/cyclin C Inhibition rate @5 μM (%)) [%] | IC50 [5] [nM] | selectivity for CDK2 over CDK1 ([5]; ratio of IC50 values) [fold] | IC50 [6] [nM] | effect on cell cycle (percentage of cells in G2/M phase) [7] | IC50 [8] [nM] | IC50 [9] [nM] | IC50 [10] [nM] | melting point [°C] | IC50 [11] [µM] | IC50 [12] [µM]
1 | Cl.NCc1cccc(-c2nc(Nc3ccc(S(N)(=O)=O)cc3)nc3[nH]cnc23)c1 [Compound 11l, 4-((6-(3-(aminomethyl)phenyl)-9H-purin-2-yl)amino)benzenesulfonamide hydrochloride] | 8.11 to 15.7 | 2700 ± 500 | more than 140 fold | > 100 | more than 140 fold | 11 | < 20 | 120 ± 20 | 4.6 to 6.3 | 19 ± 1 | increased the percentage of cells in the G2/M phase | – | – | – | – | – | –
2 | CC(=O)c1c(C)c2cnc(Nc3ccc(N4CCNCC4)cn3)nc2n(C2CCCC2)c1=O [Palbociclib] | – | – | – | – | – | – | – | – | – | – | – | […] | […] | 15 | – | – | –
3 | Cl.Nc1cccc(-c2nc(Nc3cccc([N+](=O)[O-])c3)nc3[nH]cnc23)c1 [Compound 11a, 6-(3-aminophenyl)-N-(3-nitrophenyl)-9H-purin-2-amine hydrochloride] | – | – | – | – | – | – | – | – | – | 310 ± 20 | – | – | – | – | > 300 | 0.35 | 0.023
